Earlier results as cited in patent publication US7959936B2, “Emulsifications-stable pesticidal composition” (Syngenta Crop Protection, Inc., priority 2003, dated 2011).
Like-named read-outs stand apart in the source and are kept apart here.

Experiments:
[1] = system: Rabbit
[2] = system: Rat
[3] = system: Guinea pig
[4] = system: Rainbow trout
[5] = system: Bluegill
[6] = system: Rabbit; remark: listed apart in the source
[7] = system: Quail
[8] = system: Mouse
[9] = system: Mallard duck
[10] = system: Rabbit; conditions: no unit printed for this line
[11] = system: Rabbit; remark: listed apart in the source
[12] = 25° C

Q: What does the source list for “2-(thiazol-4-ine)benzimidazole [Thiabendazole]”?
A: Irritability Skin [1]: Non-irritating; Acute oral toxicity (LD50: mg/kg) [2]: 3,100 mg/kg; Antigenicity [3]: None; Solubility, 1,2-dichloroethane (20° C.): 810 µg/mL; Solubility, Acetone (20° C.): 2430 µg/mL; Solubility, Ethyl acetate (20° C.): 1490 µg/mL; Solubility, Methanol (20° C.): 8280 µg/mL; Solubility, Xylene (20° C.): 130 µg/mL; Solubility, n-Hexane (20° C.): <10 µg/mL; Solubility, n-Octanol (20° C.): 3910 µg/mL; Solubility, Water (20° C., pH4): 160 µg/mL; Solubility, Water (20° C., pH7): 30 µg/mL; solubility in short-chain alcohols (such as methyl alcohol): comparatively satisfactory solubility; solubility in water (water): practically insoluble; solubility in typical industrial solvents (xylene and petroleum-based solvents): only slightly soluble; TLm (96 hrs) [4]: 0.5 mg/L; TLm (96 hrs) [5]: 19 mg/L; Acute oral toxicity (LD50: mg/kg) [6]: 3,800 mg/kg; Acute oral toxicity LD50 (mg/kg) [7]: <2,250 mg/kg; Acute oral toxicity (LD50: mg/kg) [8]: 3,600 mg/kg; Acute oral toxicity LD50 (mg/kg) [9]: 5,620 mg/kg; Acute percutaneous toxicity [10]: <2,000; Irritability Mucous membrane [11]: Non-irritating; Vapor pressure [12]: Vapor pressure: 4.6 × 10^−4 mPa (25° C)
